Measurements as given in ChEMBL document CHEMBL1629433, “Synthesis and pharmacological evaluation of the stereoisomers of 3-carba cyclic-phosphatidic acid” (Bioorg Med Chem Lett, 2010).
The source made the active and inactive calls. No cut-off for these calls is given here.

Columns and labels:
Autotaxin [1] = molecular target: T1, Autotaxin (Homo sapiens, UniProt Q13822); experiment: Inhibition of recombinant ATX mediated hydrolysis of FS-3 at 0.5 to 2 times IC50
Autotaxin [2] = molecular target: T1, Autotaxin; experiment: Inhibition of recombinant ATX mediated hydrolysis of FS-3
[3] = molecular target: Lysophosphatidic acid receptor 5 (Homo sapiens) (UniProt Q9H1C0); experiment: Agonist activity at LPA5 receptor expressed in rat B103 cells assessed as calcium mobilization at >1 uM; format: functional, cell-based
Sequence of Lysophosphatidic acid receptor 5 (Homo sapiens) (Q9H1C0 whole entry): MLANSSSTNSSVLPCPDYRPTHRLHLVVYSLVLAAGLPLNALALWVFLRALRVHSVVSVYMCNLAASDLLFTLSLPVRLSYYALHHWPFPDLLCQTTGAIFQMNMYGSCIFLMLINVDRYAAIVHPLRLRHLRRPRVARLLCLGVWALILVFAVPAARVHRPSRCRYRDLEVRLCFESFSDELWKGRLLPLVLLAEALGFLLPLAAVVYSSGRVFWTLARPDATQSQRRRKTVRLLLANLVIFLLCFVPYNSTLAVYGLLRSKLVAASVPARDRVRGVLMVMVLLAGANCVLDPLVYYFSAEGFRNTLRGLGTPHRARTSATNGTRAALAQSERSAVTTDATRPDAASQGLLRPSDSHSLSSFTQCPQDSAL

B16-F10 = experiment: Antitumor activity against mouse B16-F10 cells grafted in C57/BL6 mouse assessed as inhibition of lung metastases of cancer cells at 0.5 mg/kg/day, ip administered for 10 days and measured on day 21; format: functional, organism-based

Compound | inhibition (Autotaxin [1]) | Ki (Autotaxin [2]) [nM] | Activity [3] | inhibition (B16-F10)
CCCCCCCCCCCCCCCCCC(=O)OC[C@H]1CCP(=O)(O)O1 | Active | 800 | Active | Active
CCCCCCCCCCCCCCCCCC(=O)OC[C@@H]1CCP(=O)(O)O1 | Active | 1600 | Active | Active
CCCCCCCCCCCCCCCCCC(=O)OCC1CCP(=O)(O)O1 (racemic) |  |  |  | Active
